“Also recorded” adds a separate entry of the source.
Experiments:
PC-3 xenografts = assay: Mice bearing PC-3 xenografts treated with Avasimibe; type: in vivo
Protocol: To test the potential of using Avasimibe to treat advanced PCa in vivo, Avasimibe (15 mg/kg body weight by i.p. injection) was administered to the mice bearing PC-3 xenografts. Daily treatment of mice with the Avasimibe inhibited the growth of PC-3 tumors by ˜2 folds (FIG. 33), and induced ˜40% reduction in tumor weight by the end of 30-day treatment (FIG. 34).

[1] = tested on: normal prostate RWPE1 cell; assay: Toxic effect on normal prostate RWPE1 cell; type: cell-based; details: at the same doses
BxPC3 cells [2] = assay: CRS microscopy of lipid droplets in BxPC3 cells; type: cell-based; details: 7.5 μM for 24 h (FIG. 48)
Excerpt: (§1) Coherent Raman scattering (CRS) microscopy is a label-free imaging technique that is highly sensitive to C—H bond abundant structures such as membranes and lipid droplets. By matching the C—H bond stretching vibration mode at 2850 cm^−1, lipid distribution was imaged in human pancreatic cancer (n=10) and normal tissues (n=10) provided by IU School of Medicine. A remarkable amount of lipid droplets in all pancreatic cancer tissues was observed (FIG. 47, Panel B). […] Furthermore, by coupling a spectrometer to the CRS microscope, the devices was able to dissect the composition of individual lipid droplets through confocal Raman spectral analysis. […] Using emulsified mixtures of cholesteryl oleate and glyceryl trioleate (Sigma), it was verified that height ratio of the Raman peak at 702 cm^−1 the Raman peak at 1442 cm^−1 (CH^2 bending vibration mode) is linearly proportional to molar percentage of cholesteryl ester (FIG. 47, Panel D) out of the total neutral lipids. Based on this calibration curve, it was concluded that over 80% of neutral lipids in human pancreatic cancer tissues are cholesteryl ester. In order to understand how lipids accumulate in pancreatic cancer, several in vitro studies using two common pancreatic cancer cell lines, BxPC3 and PANC-1 were performed. […]

PANC-1 cells = assay: CRS microscopy and Raman spectroscopy of cholesteryl ester in PANC-1 cells; type: cell-based; details: 7.5 μM for 24 h (FIG. 48)
Excerpt: as §1

LNCaP-HP cells [3] = assay: Cell growth / viable cell number of LNCaP-HP cells; type: cell-based, human; details: for proliferation (growth) rate, MTT assay: treatment started at day 1 (FIG. 14)
Protocol: To study the impact of cholesteryl ester storage on tumor growth, the growth rate of LNCaP-HP and LNCaP-LP cells were measured using MTT assay (a colorimetric assay for measuring number of cells present, where the color is proportional to the number of cells).
Because cholesteryl ester accumulation was found in PCa but not in normal prostate, how cell viability could be affected by regulating cholesteryl ester levels with the ACAT inhibitor Avasimibe was evaluated. […] The inhibitory effect of Avasimibe on the growth of PC-3 and LNCaP-HP cells was considerably greater than that in cholesteryl ester poor cancer cells including LNCaP-LP, DU145, and C4-2.

BxPC3 cells [4] = assay: Cell viability (ATP level) of BxPC3 cells; type: cell-based; details: 7.5 μM for various periods
Protocol: The cells were treated with […] (control) or 7.5 μM avasimibe for various periods. Then cells were lysed and ATP level were quantified to determine the number of viable cells.
As the ACAT-1 inhibitor, avasimibe, effectively removed lipid droplet or cholesteryl ester accumulation in pancreatic cancer cells, the use of avasimibe as a chemotherapy agent for pancreatic cancer was explored. The effects of avasimibe on cell viability in BxPC3 and PANC-1 cells were examined.

PC-3 cells = assay: Spectroscopic imaging and Raman spectral analysis of lipid droplets in PC-3 cells; type: cell-based, human
Excerpt: A broad spectrum of human prostate epithelial cells has been examined. […] Loss of the tumor suppressor PTEN has been widely observed in both localized and metastatic prostate cancer and correlated with high Gleason grade. With loss of PTEN, PI3K signaling is hyper-activated, which, in turn, leads to AKT activation. […] AKT mediates the phosphorylation and activation of mTOR complex 1 (mTORC1) which plays critical roles in the regulation of protein and lipid biosynthesis. To determine whether the PI3K/AKT/mTOR pathway regulates cholesteryl ester accumulation, both types of cholesteryl ester rich cell lines, PC-3 and high passage LNCaP (LNCaP-HP), were treated with LY294002 (PI3K inhibitor), MK2206 (AKT inhibitor), and Rapamycin (mTOR inhibitor), respectively.
Because cholesterol can be either de novo synthesized via the mevalonate pathway or taken up from exogenous lipoproteins, the source of cholesterol used for cholesteryl ester accumulation was investigated. PC-3 cell were first treated with Simvastatin, an inhibitor of 3-hydroxy-3-methylglutaryl coenzyme A HMG-CoA reductase, the rate-limiting enzyme of the mevalonate pathway. […] In contrast, after treating cells with lipoprotein-deficient serum (LPDS), lipid droplets nearly disappeared in cholesteryl ester rich PC-3 and LNCaP-HP cells (FIG. 29, Panel A), but remained the same amount in cholesteryl ester poor cells including LNCaP-LP, DU145, and C4-2. Re-addition of low-density lipoprotein (LDL) into the LPDS medium restored lipid droplets and cholesteryl ester in both PC-3 and LNCaP-HP cells (FIG. 29, Panel B).
It is well known that LDL enters a cell via LDL receptor (LDLr) and traffics to the late endosome and lysosome where it is hydrolyzed to free fatty acids and free cholesterol. The excess free cholesterol together with the fatty acyl CoA substrate is then converted to cholesteryl ester by Acyl coenzyme A: cholesterol acyltransferase (ACAT) and stored in lipid droplets. Thus, cells were separately treated with Avasimibe and Sandoz 58-035, two different ACAT inhibitors. […] The significant reduction of cholesteryl ester accumulation upon Avasimibe treatment was further confirmed by an independent biochemical assay of cell lysates.

LNCaP-HP cells [5] = assay: Immunoblotting of SREBP and LDLr in LNCaP-HP cells; type: cell-based, human
Excerpt: Finally, it was investigated whether Avasimibe-mediated suppression of tumor growth is associated with the regulation of cholesterol metabolism machinery. It was hypothesized that abrogating ACAT activity would up-regulate cellular level of free cholesterol and then down-regulate SREBP and LDLr in PCa cells (FIG. 40). […] To provide an explanation for enhanced uptake of LDL and then storage of excess cholesterol in the form of cholesteryl ester in aggressive prostate cancer, it was noticed that LDL is the primary carrier of essential polyunsaturated fatty acid including arachidonic acid (AA). Inside cells, AA is converted to a wide range of eicosanoids, which have been implicated in various pathological processes such as inflammation and cancer.

## CC(C)c1cc(C(C)C)c(CC(=O)NS(=O)(=O)Oc2c(C(C)C)cccc2C(C)C)c(C(C)C)c1 [Avasimibe, avasimibe]
PC-3 xenografts; PC-3 tumor
  increase of apoptosis (TUNEL IHC): ~2 folds
  reduction of proliferation (Ki67 IHC): ~70%
PC-3 xenografts; compared to vehicle-treated
  cholesteryl ester content in PC-3 tumor (spectroscopic imaging of extracted tissues): significantly dropped
PC-3 xenografts; mice (FIG. 33)
  tumor size compared to controls: decreased tumor size
PC-3 xenografts; mice (FIG. 36)
  body weight over the course of treatment: remained steady
PC-3 xenografts; mice receiving Avasimibe
  pathological review of heart, kidney, liver, lung, and spleen: no signs of toxicity
PC-3 xenografts; mice, 15 mg/kg i.p. daily
  appearance of harvested tumors: less bloody in appearance
PC-3 xenografts; mice, 15 mg/kg i.p. daily, end of 30-day treatment
  reduction in tumor weight: ~40%
PC-3 xenografts; mice, 15 mg/kg i.p., daily treatment
  inhibition of growth of PC-3 tumors: ~2 folds
PC-3 xenografts; mouse, in vivo, ip, 15 mg/kg
  general toxicity (animal behavior, body weight): did not cause general toxicity
[1]
  toxic effect on normal prostate cell: no toxic effect
BxPC3 cells [2]
  lipid droplet amount: reduced lipid droplet amount
BxPC3 cells [2]; listed as avasimibe
  lipid droplet amount: reduced the lipid droplet amount; also recorded: significantly reduced the amount of lipid droplets
PANC-1 cells
  cholesteryl ester accumulation: blocked cholesteryl ester accumulation
PANC-1 cells; listed as avasimibe
  cholesteryl ester accumulation: eliminated cholesteryl ester; also recorded: blocked cholesteryl ester accumulation
LNCaP-HP cells [3]; Homo sapiens, 72 h, LNCaP-HP cell, 3 days
  IC50: 9.64 µM
LNCaP-HP cells [3]; Homo sapiens, 72 h, LNCaP-HP cells, 3 days of 7.5 μM, read-out: reduction in viable cell number
  cytotoxicity at 7.5 µM: ~55%
LNCaP-HP cells [3]; LNCaP-HP cells (FIG. 31)
  proliferation (viable cell number): significantly hampered the proliferation
LNCaP-HP cells [3]; LNCaP-HP cells
  proliferation (growth) rate, MTT assay: significantly slowed down the proliferate rate
LNCaP-HP cells [3]; LNCaP-HP cells, listed as avasimide
  proliferation (growth) rate, MTT assay: significantly reduced growth rate
BxPC3 cells [4]
  cell viability (ATP level): significantly reduced cell viability
BxPC3 cells [4]; listed as avasimibe
  cell viability (ATP level): significantly reduced the viability; also recorded: dramatically reduced the cell viability
PC-3 cells
  lipid droplet amount: remaining unchanged
PC-3 cells; ACAT inhibitor treatment
  cholesteryl ester accumulation: effectively suppressed cholesteryl ester accumulation
LNCaP-HP cells [5]
  LDLr level (immunoblot): down-regulation
  SREBP-2 level (immunoblot): down-regulation

Source: patent publication US9164084B2, “Methods for determining aggressiveness of a cancer and treatment thereof” (Purdue Research Foundation, priority 2012, dated 2015)
